# Source: article PMC7755165 (Xenobiotica; the fate of foreign compounds in biological …, 2019)
# Like-named read-outs stand apart in the source and are kept apart here.
# Tests used:
# [1] = test system: single-donor human liver microsomes; conditions: donor (CYP2C19*1/*1); (+)-N-3-benzylnirvanol 5 μM; meperidine 10 μM, 10 min
# recombinant CYP2C19 = recombinant CYP2C19 (Homo sapiens, UniProt P33261); conditions: ref Ramírez et al., (2004); cited from earlier work
# CYP2B6 [2] = target: T1, CYP2B6 (Homo sapiens, UniProt P20813); experiment: in vitro; conditions: recombinant CYP2B6, pH 7.4
# T1 sequence (P20813 1-491): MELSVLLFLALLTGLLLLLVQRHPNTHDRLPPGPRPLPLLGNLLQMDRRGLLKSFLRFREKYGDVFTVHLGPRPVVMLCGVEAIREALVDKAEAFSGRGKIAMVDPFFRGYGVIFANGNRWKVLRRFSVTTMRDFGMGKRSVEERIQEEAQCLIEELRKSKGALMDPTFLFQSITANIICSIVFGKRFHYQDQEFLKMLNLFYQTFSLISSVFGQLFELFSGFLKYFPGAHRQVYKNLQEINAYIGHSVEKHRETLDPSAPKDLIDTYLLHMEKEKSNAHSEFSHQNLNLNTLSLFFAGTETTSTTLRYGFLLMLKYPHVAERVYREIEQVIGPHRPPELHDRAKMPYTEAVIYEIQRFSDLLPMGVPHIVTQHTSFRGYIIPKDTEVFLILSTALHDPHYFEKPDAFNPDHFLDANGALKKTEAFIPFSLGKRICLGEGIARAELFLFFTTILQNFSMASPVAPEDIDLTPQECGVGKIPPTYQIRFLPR
# [3] = cited from earlier work; for half-life: ref Clark et al., 1995
# in vitro [4] = conditions: human, pooled human liver microsomes
# in vitro [5] = conditions: human, pooled human liver microsomes, pH 7.4
# recombinant CYP3A4 [6] = target: T2, recombinant CYP3A4 (Homo sapiens, UniProt P08684); conditions: cited from earlier work
# T2 sequence (P08684 2-503 limits assumed): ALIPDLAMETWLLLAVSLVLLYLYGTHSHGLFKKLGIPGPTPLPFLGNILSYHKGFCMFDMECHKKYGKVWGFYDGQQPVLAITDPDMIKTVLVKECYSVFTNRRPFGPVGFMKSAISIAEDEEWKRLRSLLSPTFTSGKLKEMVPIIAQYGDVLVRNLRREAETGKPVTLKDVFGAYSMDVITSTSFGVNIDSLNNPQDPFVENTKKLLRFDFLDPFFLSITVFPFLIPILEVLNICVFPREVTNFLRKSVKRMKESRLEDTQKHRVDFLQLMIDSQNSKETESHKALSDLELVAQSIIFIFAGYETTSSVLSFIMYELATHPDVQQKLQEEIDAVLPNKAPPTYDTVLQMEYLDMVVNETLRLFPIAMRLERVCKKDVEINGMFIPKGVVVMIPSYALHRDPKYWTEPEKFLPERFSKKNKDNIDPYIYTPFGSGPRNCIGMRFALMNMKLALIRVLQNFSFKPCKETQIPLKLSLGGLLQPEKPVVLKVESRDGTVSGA
# CYP2B6 [7] = target: T1, CYP2B6; conditions: ref Ramírez et al., (2004); cited from earlier work
# recombinant CYP3A4 [8] = target: T2, recombinant CYP3A4; experiment: Kinetic assay for meperidine N-demethylation by recombinant P450
# recombinant CYP2C19, sequence (P33261 whole entry): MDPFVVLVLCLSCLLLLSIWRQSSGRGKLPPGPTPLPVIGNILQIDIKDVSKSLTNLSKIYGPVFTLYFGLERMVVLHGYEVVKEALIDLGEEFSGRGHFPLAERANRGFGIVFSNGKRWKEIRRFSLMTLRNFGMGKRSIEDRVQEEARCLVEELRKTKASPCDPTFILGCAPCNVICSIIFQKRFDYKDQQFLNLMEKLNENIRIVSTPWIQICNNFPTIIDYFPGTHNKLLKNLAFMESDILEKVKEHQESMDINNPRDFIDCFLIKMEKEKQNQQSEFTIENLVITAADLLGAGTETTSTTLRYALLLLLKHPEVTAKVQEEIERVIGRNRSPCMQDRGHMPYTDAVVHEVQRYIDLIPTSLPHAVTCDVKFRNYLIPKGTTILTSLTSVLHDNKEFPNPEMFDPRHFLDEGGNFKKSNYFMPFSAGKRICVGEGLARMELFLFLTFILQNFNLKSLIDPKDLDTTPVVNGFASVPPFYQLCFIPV
smiles,measurement,setting,value
"CCC1(c2ccccc2)NC(=O)N(Cc2ccccc2)C1=O (single isomer, unassigned; (+)) [benzylnirvanol, (+)-N-3-benzylnirvanol]",reduction of normeperidine formation compared to vehicle control,[1],< 20%
"CCOC(=O)C1(c2ccccc2)CCN(C)CC1 [meperidine, Meperidine]",relative P450 contribution for normeperidine formation,recombinant CYP2C19,15%
same,Km at 10 min,CYP2B6 [2],262 ± 59 µM
same,half-life,[3]; patients with normal liver function,2.5 to 4 h
same,parent compound excreted in urine,"[3]; ref Burns et al., 1955, Yeh et al., 1981",5%
same,Km,in vitro [4],1600 µM
same,Km at 10 min,in vitro [5],622 ± 63 µM
same,relative P450 contribution for normeperidine formation,"recombinant CYP3A4 [6]; CYP3A4, ref Ramírez et al., (2004)",28%
same,catalytic efficiency for meperidine N-demethylation,"recombinant CYP3A4 [6]; recombinant CYP3A4, ref Ramirez et al. (2004)",0.07 min⁻¹ µM⁻¹
same,relative P450 contribution for normeperidine formation,CYP2B6 [7],57%
same,Percent Contribution to meperidine N-demethylation,recombinant CYP3A4 [8]; Approach 1 (Rowland-Yeo et al. 2004 abundances),16%
same,Percent Contribution to meperidine N-demethylation,recombinant CYP3A4 [8]; Approach 2 (Achour et al. 2014 abundances),9%
same,Percent Contribution to meperidine N-demethylation,recombinant CYP3A4 [8]; Approach 3 (Rodrigues 1999 abundances),5%
same,"estimated percent P450 contribution (fm, P450) for meperidine N-demethylation",recombinant CYP3A4 [8]; range over three sets of reported P450 abundances,5–16%
CCOC(=O)C1(c2ccccc2)CCNCC1 [normeperidine],half-life,[3]; at therapeutic doses,14 to 21 h
same,half-life,[3]; patients with renal insufficiency,exceed 34 hours
